Assay results reported in patent publication US10684290B2, “LKB1 related diagnostics and treatments of cancer” (Dignity Health, priority 2014, dated 2020).

Columns and labels:
[1] = test system: H23-KDLKB1 and H23-LKB1 cells; assay: Clonogenic survival of H23-LKB1 and H23-KDLKB1 cells; format: cell-based, human; details: 24 h treatment, colonies after 14 days
Procedure: (§1) Clonogenic survival assay were performed in 6 well dishes. Briefly, 300-500 cells were plated per well and allowed to attach overnight. Drugs were diluted fresh into media and cells were treated for 24 hours. Drug containing media was removed and replaced with fresh media. After 14 days, cells were fixed in 10% Methanol/10% Acetic Acid and stained with 0.5% crystal violet. After washing in ddH2O, plates were allowed to dry and colonies of 50 cells or more were counted. The surviving fraction was calculated according to methods described by Franken, et al.
as §1, with “200 of indicated” for “300-500”, “Were indicated cells were pre-treated with 125 ng/ml of cyclohexamide (CHX) for one hour. Indicated drugs” for “Drugs”, “h, at which time the drug” for “hours. Drug”, “Franken” for “Franken,”, “al. [Clonogenic assay of cells in vitro, NAT. PROT. 1 (5) (2006) 2315-2319].” for “al.”

[2] = test system: H23-KDLKB1 and H23-LKB1 NSCLC cells; assay: Immunoblot of BiP and CHOP in H23-LKB1 and H23-KDLKB1 cells; format: cell-based, human; details: 18 h; or bortezomib (40 nM)
Procedure: (§2) Cells were washed once with ice-cold PBS and incubated on ice for 30 min with a lysis buffer containing 10 mM Tris-HCl, 150 mM NaCl, 0.1% SDS and 1% IGEPAL (Sigma) to which a protease inhibitor cocktail (Sigma) and two phosphatase cocktails I and II (Sigma) were added immediately before use. Lysates were transferred to tubes and insoluble material was pelleted by centrifugation. For immunoblotting, 50-100 μg of total protein lysates were separated by SDS-PAGE and transferred to nitrocellulose. Blots were blocked in 5% milk/Tris buffered saline/0.1% TWEEN® 20 (polyoxyethylenesorbitan monolaurate) (TBST) and primary antibodies were diluted in 5% Bovine Serum Albumin (Sigma)/TBST and incubated overnight at 4° C. Blots were developed with ECL plus (GE) and visualized on a Kodak Image station.

[3] = Chronic dosing tolerability in vivo
[4] = test system: H23-LKB1 and H23-KDLKB1 cells; assay: Caspase 3/7 activity assay; format: cell-based, human; details: 5 ug/ml, 24 hours
Procedure: H23-LKB1 and H23-KDLKB1 cell were plated as described previously and treated for 24 hours with tunicamycin (5 ug/ml) or vehicle (DMSO). Activity of Caspases 3 and 7 were determined using a Promega Caspase-Glo 3/7 kit and data analyzed as described previously.

[5] = test system: H838-KDLKB1 and H838-LKB1 cells; assay: Immunoblot of ER stress markers in H838-LKB1 and H838-KDLKB1 cells; format: cell-based, human; details: 12 h; 2DG 10 mM, Tm 1.25 ug/ml, BFA 30 ng/ml
Procedure: as §2

[6] = test system: H838-KDLKB1 cells; assay: Clonogenic survival of H838-LKB1 and H838-KDLKB1 cells; format: cell-based, human; details: 24 h; 2DG 10 mM, Tm 1.25 μg/ml, BFA 30 ng/ml
Procedure: as §1, with “200 of indicated” for “300-500”, “Were indicated cells were pre-treated with 125 ng/ml of cyclohexamide (CHX) for one hour. Indicated drugs” for “Drugs”, “h, at which time the drug” for “hours. Drug”, “Franken” for “Franken,”, “al. [Clonogenic assay of cells in vitro, NAT. PROT. 1 (5) (2006) 2315-2319].” for “al.”

[7] = test system: H838-KDLKB1 and H838-LKB1 cells; assay: Flow cytometry of ROS levels (CellROX staining); format: cell-based, human; details: CellROX FACS, 12 h; 2DG 10 mM, Tm 1.25 μg/ml, BFA 30 ng/ml; baseline difference 1.4-fold
Procedure: To analyze levels of reactive oxygen species (ROS), 1×10^6 H838-KDLKB1 and H838-LKB1 cells were plated and treated with the indicated drugs. Cells were then stained with 0.5 1M CellRox™ for 30 min at 37° C., collected by trypsinization and washed with PBS. Following fixation with 2% Paraformaldehyde/PBS for 20 min, cells were brought to a final volume of 500 ll in PBS. CellRox™ staining of ROS was assessed using the Accuri C6 Flow Cytometer (BD Biosciences, San Jose, Calif., USA) with the threshold set at 80,000. A total of 30,000 events were collected per sample and ROS staining intensity determined using FCS Express 4 Flow Cytometer software. Background events were gated out using unstained control. Histogram plots were overlaid and histogram subtraction was performed by subtracting the integral of the stained control from the treated sample.

[8] = test system: A427-KDLKB1 and A427-LKB1 cells; assay: ATP measurement/cell viability (CellTiter-Glo), A427; format: cell-based, human; details: 48 h; 2DG 10 mM, Tm 1.25 μg/ml, BFA 30 ng/ml; p<0.005
Procedure: (§3) 500 H838 or A427 cells stably expressing either LKB1 or KDLKB1 were plated in 96 well plates. The following day, cells were dosed with the indicated treatments for 48 h. Cellular ATP levels were assessed using the CellTiter-Glo Luminescent Cell Viability Assay substrate (Promega) according to manufacturer's instructions. Luminescence was read using the DTX 880 Multimode Detector. Cellular ATP/cell viability was calculated relative to vehicle treated control.

[9] = test system: H838-KDLKB1 and H838-LKB1 cells; assay: ATP measurement/cell viability (CellTiter-Glo), H838; format: cell-based, human; details: 48 h; 2DG 10 mM, Tm 1.25 μg/ml, BFA 30 ng/ml; p<0.005
Procedure: as §3

[10] = test system: LKB1 expressing and LKB1 null LA/NSCLC cell lines; assay: Immunoblot of pAMPK and cleaved PARP in LKB1 expressing and LKB1 null cell lines; format: cell-based, human; details: 20 mM
Procedure: Cells were incubated on ice for 30 minutes with a lysis buffer containing 10 mM Tris-HCL, 150 mM NaCl, 0.1% SDS and 1% IGEPAL (Sigma). Immediately before use, a protease inhibitor cocktail (Sigma) and two phosphatase cocktails I and II (Sigma) were added to the lysis buffer. Lysates were transferred to tubes and insoluble material was pelleted by centrifugation. Nuclear protein fractions were isolated using a NE-PER protein extraction kit (ThermoFisher) according to manufacturer's instructions. Protein concentration was determined using the Bio-Rad DC protein kit. For immunoblotting, 50-100 ug of total protein lysates was separated by SDS-PAGE and transferred to nitrocellulose. Blots were blocked in 5% milk/Tris buffered saline/0.1% TWEEN® 20 (polyoxyethylenesorbitan monolaurate) (TBST) and primary antibodies were diluted in 5% Bovine Serum Albumin (Sigma)/TBST and incubated overnight at 4° C. Blots were developed with ECL plus (GE) and visualized on a Kodak Image station.
Cells were washed once with ice-cold PBS and incubated on ice for 30 min with a lysis buffer containing 10 mM Tris-HCl, 150 mM NaCl, 0.1% SDS and 1% IGEPAL (Sigma) to which a protease inhibitor cocktail (Sigma) and two phosphatase cocktails I and II (Sigma) were added immediately before use. Lysates were transferred to tubes and insoluble material was pelleted by centrifugation. […]

[11] = test system: BiP/GRP78 in KRas/LKB1^wt and KRas/LKB1^null NSCLC tumors; assay: Immunohistochemical staining of BiP in NSCLC tumors of treated mice; format: in vivo; details: 500 mg/kg twice a day for two days
Procedure: KRas^G12D/LKB1^lox/lox (KRas/LKB1^null) were generated by selective breeding of Lox-Stop-Lox KRas^G12D mice, purchased from Jackson Laboratories (Bar-Harbor, Me.), with LKB1^lox/lox mice obtained from Mouse Repository at the NCI and were inbred on a FVB background. KRas^G12D/LKB1^wt/wt (KRas/LKB1^wt) mice were generated by backcrossing Lox-Stop-Lox KRas^G12D onto a FVB background. Induction of lung tumors was performed. Briefly, six-week-old KRas/LKB1^null and KRas/LKB1^wt mice were transiently infected with 5×10^6 p.f.u. of Cre adenovirus (University of Iowa adenoviral core) via intranasal infection. At ˜6 weeks (KRas/LKB1^null) or ˜10 weeks (KRas/LKB1^wt) post-infection, mice underwent a baseline MRI scan to determine the baseline tumor burden. Mice with identified disease were randomized for daily treatment with either vehicle (PBS) or 500 mg/kg 2DG for three weeks, at which time mice received a follow-up MRI scan, sacrificed and the presence of disease confirmed by gross assessment and histology. For data generated in FIG. 2, KRas/LKB1^null and KRas/LKB1^wt mice with MRI positive tumors were treated either with 2DG (500 mg/kg) or vehicle (PBS) twice a day for two days before sacrifice and necropsy of tumor tissue. […]

[12] = test system: KRas/LKB1^wt and KRas/LKB1^null NSCLC tumors; assay: Murine transgenic models of KRas and KRas/LKB1 null NSCLC, MRI tumor volume; format: in vivo, mice
Procedure: KRas^G12D/LKB1^lox/lox (KRas/LKB1^null) were generated by selective breeding of Lox-Stop-Lox KRas^G12D mice, purchased from Jackson Laboratories (Bar-Harbor, Me.), with LKB1^lox/lox mice obtained from Mouse Repository at the NCI and were inbred on a FVB background. KRas^G12D/LKB1^wt/wt (KRas/LKB1^wt) mice were generated by backcrossing Lox-Stop-Lox KRas^G12D onto a FVB background. Induction of lung tumors was performed. Briefly, six-week-old KRas/LKB1^null and KRas/LKB1^wt mice were transiently infected with 5×10^6 p.f.u. of Cre adenovirus (University of Iowa adenoviral core) via intranasal infection. At ˜6 weeks (KRas/LKB1^null) or ˜10 weeks (KRas/LKB1^wt) post-infection, mice underwent a baseline MRI scan to determine the baseline tumor burden. Mice with identified disease were randomized for daily treatment with either vehicle (PBS) or 500 mg/kg 2DG for three weeks, at which time mice received a follow-up MRI scan, sacrificed and the presence of disease confirmed by gross assessment and histology. For data generated in FIG. 2, KRas/LKB1^null and KRas/LKB1^wt mice with MRI positive tumors were treated either with 2DG (500 mg/kg) or vehicle (PBS) twice a day for two days before sacrifice and necropsy of tumor tissue. Mice received daily checks to monitor for clinical signs of disease (labored breathing, weight loss) and all procedures were under a protocol approved by the St. Joseph's Hospital and Medical Center IACUC committee.
All the scans were performed using a 7T small animal, 30-cm horizontal-bore magnet and BioSpec Advance III spectrometer (Bruker, Billerica, Mass.) with a 72 mm quadrature volume coil. Each animal was induced and maintained under isoflurane anesthesia, 3.0% and 1.5%, respectively, and delivered with 1.5 L/min of 100% oxygen. During MRI scans, the animal's respiration was continually monitored by a small animal monitoring and gating system (SA Instruments, Stoney Brook, N.Y.) via a pillow sensor positioned on top of the abdomen. Mice were placed on a heated animal bed system (Bruker, Billerica, Mass.) and the normal body temperature (36-37° C.) was maintained. For MR imaging, a Fast Low Angle Shot (FLASH) sequence (TR/TE=40 ms/2 ms; FOV=60 mm×60 mm; Average=2; matrix=256×256; Flip Angle=30°) was used to acquire initial scout images, which were used for locating the lung region for subsequent images. Then T1 weighted images were obtained with the Fast Imaging with Steady State Precession (FISP) sequence (TR/TE 5.262 ms/2.0 ms; 8 segments; FOV=30 mm×30 mm; matrix=256×256; slice thickness=1.0 mm; Flip angle, 20°; 22 averages; total acquisition time=17 min). […] Change in tumor volumes was determined by comparison of baseline tumor volume to tumor volume following three weeks of treatment.

[13] = KRas/LKB1^null mice, data not shown

Compound	Clonogenic survival / cytotoxicity in H23-KDLKB1 compared to H23-LKB1 [1]	BiP expression in H23-KDLKB1 compared to H23 cells with reconstituted LKB1 [2] [fold decrease]	CHOP expression in H23-KDLKB1 compared to H23 cells with reconstituted LKB1 [2] [fold decrease]	Tolerability of chronic dosing [3]	Activity of Caspases 3 and 7 (apoptosis) in H23-KDLKB1 versus H23-LKB1 [4]	Phosphorylated eIF2a in H838-KDLKB1 compared to H838-LKB1 cells [5]	Clonogenic cell survival of H838-KDLKB1 cells [6]	ROS levels in H838-KDLKB1, increase in intensity over H838-LKB1 [7] [fold]	Cellular ATP in A427-KDLKB1 compared to A427 re-expressing LKB1 [8]	Cellular ATP in H838-KDLKB1 compared to H838 re-expressing LKB1 [9]	Phosphorylation of AMPK in LKB1 expressing H2009 cells (not in LKB1-deficient H23 cells) [10]	Cleavage of PARP (apoptosis) in LKB1 null LA cells (H2126, H838, H1395) ([10]; 12 and 18 hours)	BiP protein levels in NSCLC tumor cells of KRas/LKB1^wt mice (IHC) [11]	Growth of NSCLC tumors (change in tumor volume by MRI) compared to vehicle ([12]; 500 mg/kg daily, three weeks, KRas/LKB1 wt and KRas/LKB1^null mice)	Response of KRas/LKB1^null tumors compared to KRas/LKB1^wt tumors ([12]; 500 mg/kg daily, three weeks, p=0.0032)	Effects upon metastasis, gross assessment at necropsy [12, 13]	Survival of mice in longer term studies [12, 13]
CC(C)C[C@H](NC(=O)[C@H](Cc1ccccc1)NC(=O)c1cnccn1)B(O)O [bortezomib]	reduced the survival of H23-KDLKB1 cells in a dose dependent manner	9	1.6														
tunicamycin [Tm]	increased cytotoxicity			poorly tolerated	increased levels of Caspase activity	increased levels of phosphorylated eIF2a	reduced cell survival	1.67	reduced ATP	reduced ATP							
O=CC[C@@H](O)[C@H](O)[C@H](O)CO [2DG, 2-deoxy-D-glucose]				poorly tolerated		increased levels of phosphorylated eIF2a	reduced cell survival	2	reduced ATP	reduced ATP	resulted in phosphorylation of AMPK	increased cleavage of poly(ADP-ribose) polymerase (PARP)	significant increase in BiP protein levels	reduced the growth of NSCLC tumors	statistically greater response	did not observe any effects upon metastasis	no statistical impact upon survival
